Test results as given in patent publication US8716355B2, “Hydroxylated tolans and related compounds in the treatment of a cancer” (Kent State University, priority 2007, dated 2014).
Values joined by “and” are separate entries in the source; they are usually repeats but may differ in a detail not shown here. Equal values may be shown once. Read-outs that look alike come from different tables or passages of the source.

Tests used:
ovine COX-1 = target: T1, ovine COX-1 (Ovis aries, UniProt P05979); assay: COX Inhibitor Screening Assay, COX1; assay type: biochemical
T1 construct: purchased Cayman Chemical 560131
Procedure: The indicated concentration of these agents were tested in the presence of COX1. COX activity was quantified by measuring the amount of final product PGF2α which competed with acetylcholinesterase (AChE)-linked PGs for binding to its antibody immobilized to the surface of microplate wells. Color was developed by adding an AChE substrate and was inversely related to the amount of PGF2α±SD of triplicate determinations.
The prostanoid product can be quantified via enzyme immunoassay (EIA) using a broadly specific antibody that binds to all the major prostaglandin compounds. COX assays from Cayman Chemical, Ann Arbor, Mich., are more accurate and reliable than assays based on peroxidase inhibition. The Cayman COX Inhibitor Screening Assay includes both ovine COX-1 and human recombinant COX-2 enzymes in order to screen isozyme-specific inhibitors. This assay is an excellent tool which can be used for general inhibitor screening.
COX was assayed by measuring production of PGF2, generated by stannous chloride (SnCl2) in the presence of PGH2 using a commercial kit from Cayman Chemical, (Ovine COX Inhibitor Screening Assay, Catalog #560131). […]
A 96-well plate coated with mouse anti-rabbit IgG was then used and various components were added—assay standards, nonspecific binding controls, maximum binding controls, and the inhibitor dilutions—along with the tracer and antiserum. The plate was incubated at room temperature for 18 hours, washed five times with wash buffer, developed with Ellman's Reagent and the colored reaction product was read on an automatic microplate reader at 410 nm. The IC50 for the respective COX enzyme was graphically determined from a three-point curve. […]
The intensity of color was inversely proportional to the amount of free prostaglandins quantitatively representing the COX enzymatic activity, under the influence of the test compounds.
As noted, COX activity was quantified by measuring the amount of final product PGF2-α which competed with AChE-linked PGs for binding to an antibody immobilized to microplates. […]

T24 = assay: MTT cytotoxicity, T24 bladder cancer cells; assay type: cell-based, human
Procedure: As a first step, the antitumor activity of the tolans was assessed against a panel of three cancer cells lines that produce solid tumors upon implantation into animals. DU145 is an androgen-independent prostate cancer cells. T24 is a transitional cell bladder carcinoma cell. MDAH2274 (“MDAH) is an endometroid ovarian adenocarcinoma cell. To assess the selectivity of this antitumor activity, the toxicity of the tolans to normal human fibroblasts (MHRF) was examined.
Cell killing was evaluated using the colorimetric MTT assay. The assay measures the formation of a colored product from a chromogenic precursor, the tetrazole 3-[4,5-dimethylthiazol-2-yl]-2,5 diphenyltetrazolium bromide (MTT). The yellow MTT is reduced to purple formazan in the mitochondria of living cells. A solubilization solution (typically dimethyl sulfoxide or sodium dodecyl sulfate in dilute hydrochloric acid) is added to dissolve the insoluble purple formazan product into a colored solution. The absorbance of this colored solution is quantified by measuring at a certain wavelength (usually between 500 and 600 nm) by a spectrophotometer. […] This MTT assay is used widely to assess the cytotoxicity and selectivity of compounds such as anti-cancer drugs. The assay is suitable for rapid toxicity characterization of a test agent such as a drug formulation. […] A lower CD50 indicates a greater cytotoxic activity (as a lower amount of the agent is needed to achieve a fixed level of cytotoxicity). Two agents can be compared by examining the fold-increase or decrease in their CD50 values. […]

DU145 = assay: MTT cytotoxicity, DU145 prostate cancer cells; assay type: cell-based, human; conditions: for IC50: MTT, read-out: CD50 against DU145
Procedure: As a first step, the antitumor activity of the tolans was assessed against a panel of three cancer cells lines that produce solid tumors upon implantation into animals. DU145 is an androgen-independent prostate cancer cells. T24 is a transitional cell bladder carcinoma cell. MDAH2274 (“MDAH) is an endometroid ovarian adenocarcinoma cell. To assess the selectivity of this antitumor activity, the toxicity of the tolans to normal human fibroblasts (MHRF) was examined. Subsequently, studies with Tolan-3 (KST-201) were expanded to test its action on a wide range of tumor cell lines.
Cell killing was evaluated using the colorimetric MTT assay. The assay measures the formation of a colored product from a chromogenic precursor, the tetrazole 3-[4,5-dimethylthiazol-2-yl]-2,5 diphenyltetrazolium bromide (MTT). The yellow MTT is reduced to purple formazan in the mitochondria of living cells. A solubilization solution (typically dimethyl sulfoxide or sodium dodecyl sulfate in dilute hydrochloric acid) is added to dissolve the insoluble purple formazan product into a colored solution. The absorbance of this colored solution is quantified by measuring at a certain wavelength (usually between 500 and 600 nm) by a spectrophotometer. The amount of purple formazan product generated is proportional to the number of viable cells (Mosmann, T., 1983, J. Immunol. Meth. 65:55-63; Wilson, A. P., Cytotoxicity and Viability Assays. In: Animal Cell Culture: A Practical Approach, 3rd ed. (Masters, J R W, ed.) Oxford University Press: Oxford, Vol. 1, pp. 175-219. 2000). This MTT assay is used widely to assess the cytotoxicity and selectivity of compounds such as anti-cancer drugs. The assay is suitable for rapid toxicity characterization of a test agent such as a drug formulation. […] A lower CD50 indicates a greater cytotoxic activity (as a lower amount of the agent is needed to achieve a fixed level of cytotoxicity). Two agents can be compared by examining the fold-increase or decrease in their CD50 values.

[1] = MTT, 1 day incubation, read-out: CD50 against T24, compound tested individually
[2] = Homo sapiens, DU-145, 24 h, 1 day incubation
[3] = Homo sapiens, DU-145, 48 h, 2 days incubation
[4] = Homo sapiens, DU-145, 72 h, 3 days incubation

T1 sequence (P05979 25-600): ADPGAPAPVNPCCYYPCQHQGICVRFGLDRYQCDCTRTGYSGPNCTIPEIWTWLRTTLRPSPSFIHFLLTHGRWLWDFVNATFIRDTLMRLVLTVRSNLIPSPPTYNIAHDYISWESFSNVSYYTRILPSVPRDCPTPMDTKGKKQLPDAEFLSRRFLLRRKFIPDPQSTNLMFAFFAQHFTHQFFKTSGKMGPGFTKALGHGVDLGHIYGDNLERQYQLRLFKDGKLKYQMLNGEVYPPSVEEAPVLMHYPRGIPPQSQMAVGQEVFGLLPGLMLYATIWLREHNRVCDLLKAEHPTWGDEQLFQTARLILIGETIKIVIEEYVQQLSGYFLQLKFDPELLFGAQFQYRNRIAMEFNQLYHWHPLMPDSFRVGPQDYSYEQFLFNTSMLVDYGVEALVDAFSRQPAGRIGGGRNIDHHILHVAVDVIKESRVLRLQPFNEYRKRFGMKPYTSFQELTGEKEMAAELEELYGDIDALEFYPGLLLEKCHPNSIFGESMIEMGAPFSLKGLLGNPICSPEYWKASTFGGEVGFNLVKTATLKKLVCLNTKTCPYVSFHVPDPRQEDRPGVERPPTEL

## Oc1ccc(/C=C/c2cc(O)cc(O)c2)cc1 [Resveratrol, 3,5,4′-trihydroxy-trans-stilbene, reference compound]
Ovine COX-1; high end of 10 μM to 200 μM
  COX1 enzymatic activity: complete inhibition
Ovine COX-1; low end of 10 μM to 200 μM
  COX1 enzymatic activity, % of initial activity: 5%
T24; Homo sapiens, T-24, 24 h, MTT, 1 day incubation, read-out: CD50 against T24, compound tested individually
  IC50: 36 µM
T24; Homo sapiens, T-24, 48 h, MTT, 2 days incubation, read-out: CD50 against T24, compound tested individually
  IC50: 29.1 ± 0.05 µM
T24; [1]
  IC50: 35.7 ± 1 µM
T24; MTT, 3 days incubation, listed as resveratrol, read-out: CD50 against T24
  IC50: 23 µM
T24; MTT, 3 days incubation, read-out: CD50 against T24
  IC50: 22.6 ± 0.25 µM
DU145; [2]
  IC50: 92 µM
DU145; [3]
  IC50: 58.2 ± 0.4 µM
DU145; [4]
  IC50: 28 µM
DU145; 1 day incubation
  IC50: 92.2 ± 2.9 µM
DU145; 3 days incubation
  IC50: 27.9 ± 0.65 µM

## Oc1ccc(C#Cc2ccc(O)cc2)cc1 [KST-201, 4,4′-dihydroxytolan]
Ovine COX-1; doses of 10 to 200 μM tested
  Inhibition of COX1 activity: about 50%
T24
  Fold more potent in killing T24 cells vs. control MHRF fibroblasts: 18 fold
T24; Homo sapiens, T-24, 24 h, VC:KST-201 200:1, 1 day, read-out: CD50 (μM) of each Compound tested in combination, T24
  IC50: 3.19 µM
T24; Homo sapiens, T-24, 48 h, VC:KST-201 200:1, 2 days, read-out: CD50 (μM) of each Compound tested in combination, T24
  IC50: 3.17 µM
T24; Homo sapiens, T-24, 72 h, MTT, 3 days incubation, read-out: CD50 against T24
  IC50: 8.5 µM
T24; [1]
  IC50: 83 µM and 82.6 µM
T24; MTT, 2 days incubation, read-out: CD50 against T24, compound tested individually
  IC50: 31.1 ± 0.81 µM
T24; Table 15 vs Table 14
  Fold more toxic to T24 bladder cancer cells than resveratrol: 2.8 fold
T24; VC:KST-201 200:1
  Increase of cytotoxic potency when given together, T24: about 7 fold
DU145
  Fold more potent against DU145 cells compared to control MHRF fibroblasts: 16 fold
DU145; [2]
  IC50: 57 µM
DU145; [3]
  IC50: 16.8 ± 0.63 µM
DU145; [4]
  IC50: 9.4 µM
DU145; 1 day incubation
  IC50: 57.3 ± 0.81 µM
DU145; Table 15 vs Table 14
  Fold more toxic to DU145 prostate cancer cells than resveratrol: 3 fold
